Literature values as cited in patent publication US7935730B2, “Method of enhancing reproductive function of mammals by feeding of conjugated linoleic acids” (Cornell Research Foundation, Inc., priority 2006, dated 2011).

Tests used:
[1] = in vivo
[2] = tested on: young rodents; conditions: proposed

For `CCCCCC/C=C/C=C\CCCCCCCC(=O)O` [cis-9, trans-11 CLA], the “effect on milk and body fat” value [1] is given as “no effect” and the “feed efficiency and growth” value [2] is given as “enhance”.

For `CCCCC/C=C\C=C\CCCCCCCCC(=O)O` [trans-10, cis-12 CLA], the “effect on milk and body fat” value [1] is given as “reduction”.
